Values after ≈ are worked out from the molar mass of the structure shown.
What was measured:
[1] = system: Staphylococcus aureus-SMITH (GC 4543); assay: acute lethal infection in mice; assay type: in vivo; settings: acute lethal infection, female CD-1 mice, intraperitoneal challenge, intravenous 30 min. after infection, 7 day survival
How it was run: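 Female CD-1 mice (20±2 g) got an intraperitoneal bacterial challenge lethal to untreated controls within 24–48 hr. Compound was dosed intravenously 30 min after infection, five mice per dose. ED50 was calculated from 7-day survival pooled across 3 tests.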

Enterococcus sp. = assay: in vitro antibacterial evaluation, MIC by broth dilution; assay type: cell-based; settings: broth dilution, 18 hours at 35° C.; for MIC Enterococcus faecalis (ATCC 29212): strain ATCC 29212; for MIC Enterococcus faecalis (GC 2242): strain GC 2242; for MIC Enterococcus faecium (GC 2243): strain GC 2243; for MIC Enterococcus faecalis (GC 2691): strain GC 2691; for MIC Enterococcus faecalis (GC 3059): strain GC 3059; for MIC Enterococcus faecalis (GC 4552): strain GC 4552; for MIC Enterococcus faecalis (GC 4553): strain GC 4553; for MIC Enterococcus faecalis (GC 4554): strain GC 4554; for MIC Enterococcus faecium (GC 4556): strain GC 4556; for MIC Enterococcus faecium (GC 4557): strain GC 4557; for MIC Enterococcus avium (GC 4558): strain GC 4558; for MIC Enterococcus faecalis (GC 6189): strain GC 6189
How it was run: (§1)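 MIC = lowest antibiotic concentration preventing visible growth; inoculum 5×10^5 CFU/mL; drug range 64-0.06 μg/mL; Muller-Hinton II […]; NCCLS M7-A2 guidance.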

Streptococcus sp. = assay: as above; assay type: cell-based; settings: broth dilution, 18 hours at 35° C.; for MIC Streptococcus pneumoniae (ATCC 6301): strain ATCC 6301; for MIC Streptococcus pneumoniae (GC 1894): strain GC 1894; for MIC Streptococcus pyogenes (GC 4563): strain GC 4563; for MIC Streptococcus agalactiae (GC 4564): strain GC 4564; for MIC Streptococcus pneumoniae (GC 4565): strain GC 4565
How it was run: as §1

Staphylococcus sp. = assay: as above; assay type: cell-based; settings: broth dilution, 18 hours at 35° C.; for MIC Staphylococcus aureus (GC 1131): strain GC 1131
How it was run: as §1

Escherichia coli = assay: as above; assay type: cell-based
How it was run: as §1

Compound: Cc1ccc(Oc2ccc(C3OCC4OC(OC5C(CO)OC(Oc6ccc(CC7NC(=O)C(C(C)c8ccccc8)NC(=O)CNC(=O)C(CO)NC(=O)C(C(O)C8CNC(=N)N8C8OC(CO)C(O)C(O)C8O)NC(=O)C(C(O)C8CNC(=N)N8)NC7=O)cc6)C(O)C5O)C(O)C(O)C4O3)cc2)cc1 (stereo not drawn) [Example 174, Cyclo[glycyl-β-methylphenylalanyl-O-[4-O-[4,6-O-[4-(4-methylphenoxy)benzylidene]hexopyranosyl]hexopyranosyl]tyrosyl-3-(2-iminoimidazolidin-4-yl)seryl-3-(3-hexopyranosyl-2-iminoimidazolidin-4-yl)serylseryl]]
- median effective dose (ED50), Staphylococcus aureus-SMITH (GC 4543) [1]: 0.08 mg/kg
- MIC Enterococcus faecalis (ATCC 29212) (Enterococcus sp.; inoculum 5×10^5 CFU/mL): 2 µg/mL (≈ 1.34 µM)
- MIC Enterococcus faecalis (GC 2242) (Enterococcus sp.; inoculum 5×10^5 CFU/mL): 2 µg/mL (≈ 1.34 µM)
- MIC Enterococcus faecium (GC 2243) (Enterococcus sp.; inoculum 5×10^5 CFU/mL): 1 µg/mL (≈ 0.671 µM)
- MIC Enterococcus faecalis (GC 2691) (Enterococcus sp.; inoculum 5×10^5 CFU/mL): 2 µg/mL (≈ 1.34 µM)
- MIC Enterococcus faecalis (GC 3059) (Enterococcus sp.; inoculum 5×10^5 CFU/mL): 2 µg/mL (≈ 1.34 µM)
- MIC Enterococcus faecalis (GC 4552) (Enterococcus sp.; inoculum 5×10^5 CFU/mL): 1 µg/mL (≈ 0.671 µM)
- MIC Enterococcus faecalis (GC 4553) (Enterococcus sp.; inoculum 5×10^5 CFU/mL): 1 µg/mL (≈ 0.671 µM)
- MIC Enterococcus faecalis (GC 4554) (Enterococcus sp.; inoculum 5×10^5 CFU/mL): 1 µg/mL (≈ 0.671 µM)
- MIC Enterococcus faecium (GC 4556) (Enterococcus sp.; inoculum 5×10^5 CFU/mL): 1 µg/mL (≈ 0.671 µM)
- MIC Enterococcus faecium (GC 4557) (Enterococcus sp.; inoculum 5×10^5 CFU/mL): 2 µg/mL (≈ 1.34 µM)
- MIC Enterococcus avium (GC 4558) (Enterococcus sp.; inoculum 5×10^5 CFU/mL): 2 µg/mL (≈ 1.34 µM)
- MIC Enterococcus faecalis (GC 6189) (Enterococcus sp.; inoculum 5×10^5 CFU/mL): 2 µg/mL (≈ 1.34 µM)
- MIC Enterococcus faecalis (ATCC 29212) (Enterococcus sp.): 2 µg/mL (≈ 1.34 µM)
- MIC Enterococcus faecalis (GC 2242) (Enterococcus sp.): 2 µg/mL (≈ 1.34 µM)
- MIC Enterococcus faecium (GC 2243) (Enterococcus sp.): 1 µg/mL (≈ 0.671 µM)
- MIC Enterococcus faecalis (GC 2691) (Enterococcus sp.): 2 µg/mL (≈ 1.34 µM)
- MIC Enterococcus faecalis (GC 3059) (Enterococcus sp.): 2 µg/mL (≈ 1.34 µM)
- MIC Enterococcus faecalis (GC 4552) (Enterococcus sp.): 1 µg/mL (≈ 0.671 µM)
- MIC Enterococcus faecalis (GC 4553) (Enterococcus sp.): 1 µg/mL (≈ 0.671 µM)
- MIC Enterococcus faecalis (GC 4554) (Enterococcus sp.): 1 µg/mL (≈ 0.671 µM)
- MIC Enterococcus faecium (GC 4556) (Enterococcus sp.): 1 µg/mL (≈ 0.671 µM)
- MIC Enterococcus faecium (GC 4557) (Enterococcus sp.): 2 µg/mL (≈ 1.34 µM)
- MIC Enterococcus avium (GC 4558) (Enterococcus sp.): 2 µg/mL (≈ 1.34 µM)
- MIC Enterococcus faecalis (GC 6189) (Enterococcus sp.): 2 µg/mL (≈ 1.34 µM)
- MIC Streptococcus pneumoniae (ATCC 6301) (Streptococcus sp.; inoculum 5×10^5 CFU/mL): <0.06 µg/mL
- MIC Streptococcus pneumoniae (GC 1894) (Streptococcus sp.; inoculum 5×10^5 CFU/mL): <0.06 µg/mL
- MIC Streptococcus pyogenes (GC 4563) (Streptococcus sp.; inoculum 5×10^5 CFU/mL): <0.06 µg/mL
- MIC Streptococcus agalactiae (GC 4564) (Streptococcus sp.; inoculum 5×10^5 CFU/mL): <0.06 µg/mL
- MIC Streptococcus pneumoniae (GC 4565) (Streptococcus sp.; inoculum 5×10^5 CFU/mL): <0.06 µg/mL
- MIC Streptococcus pneumoniae (ATCC 6301) (Streptococcus sp.): <0.06 µg/mL
- MIC Streptococcus pneumoniae (GC 1894) (Streptococcus sp.): <0.06 µg/mL
- MIC Streptococcus pyogenes (GC 4563) (Streptococcus sp.): <0.06 µg/mL
- MIC Streptococcus agalactiae (GC 4564) (Streptococcus sp.): <0.06 µg/mL
- MIC Streptococcus pneumoniae (GC 4565) (Streptococcus sp.): <0.06 µg/mL
- MIC Staphylococcus aureus (GC 1131) (Staphylococcus sp.; inoculum 5×10^5 CFU/mL): 1 µg/mL (≈ 0.671 µM)
- MIC Staphylococcus aureus (ATCC 29213) (Staphylococcus sp.; strain ATCC 29213): 2 µg/mL (≈ 1.34 µM)
- MIC Staphylococcus aureus (GC 1131) (Staphylococcus sp.): 1 µg/mL (≈ 0.671 µM)
- MIC Staphylococcus aureus (GC 3051) (Staphylococcus sp.; strain GC 3051): 2 µg/mL (≈ 1.34 µM)
- MIC Staphylococcus aureus (GC 3053) (Staphylococcus sp.; strain GC 3053): 2 µg/mL (≈ 1.34 µM)
- MIC Staphylococcus aureus (GC 4541) (Staphylococcus sp.; strain GC 4541): 2 µg/mL (≈ 1.34 µM)
- MIC Staphylococcus aureus (GC 4542) (Staphylococcus sp.; strain GC 4542): 2 µg/mL (≈ 1.34 µM)
- MIC Staphylococcus aureus (GC 4544) (Staphylococcus sp.; strain GC 4544): 1 µg/mL (≈ 0.671 µM)
- MIC Staphylococcus aureus (GC 4545) (Staphylococcus sp.; strain GC 4545): 1 µg/mL (≈ 0.671 µM)
- MIC Staphylococcus aureus-SMITH (GC 4543) (Staphylococcus sp.; strain GC 4543): 1 µg/mL (≈ 0.671 µM)
- MIC Staphylococcus haemolyticus (GC 4546) (Staphylococcus sp.; strain GC 4546): 2 µg/mL (≈ 1.34 µM)
- MIC Coagulase Negative Staphylococcus (GC 4547) (Staphylococcus sp.; strain GC 4547): 2 µg/mL (≈ 1.34 µM)
- MIC Coagulase Negative Staphylococcus (GC 4548) (Staphylococcus sp.; strain GC 4548): 0.5 µg/mL (≈ 0.336 µM)
- MIC Coagulase Negative Staphylococcus (GC 4549) (Staphylococcus sp.; strain GC 4549): 1 µg/mL (≈ 0.671 µM)
- MIC Coagulase Negative Staphylococcus (GC 4551) (Staphylococcus sp.; strain GC 4551): 1 µg/mL (≈ 0.671 µM)
- MIC Coagulase Negative Staphylococcus (GC 6257) (Staphylococcus sp.; strain GC 6257): 0.5 µg/mL (≈ 0.336 µM)
- MIC Escherichia coli (ATCC 25922) (Escherichia coli; strain ATCC 25922, 18 hours at 35° C.): >64 µg/mL
- MIC Escherichia coli (GC 4559) (Escherichia coli; strain GC 4559, 18 hours at 35° C.): >64 µg/mL
- MIC Escherichia coli (GC 4560) (Escherichia coli; strain GC 4560, 18 hours at 35° C.): 4 µg/mL (≈ 2.69 µM)

— patent publication US6914045B2, “Glycopeptide antibiotics” (Wyeth Holdings Corporation, priority 2001, dated 2005)
